Among the data in patent US20240009116A1, “DRUG DELIVERY SYSTEM COMPRISING A NON-STEROIDAL ANTI-INFLAMMATORY (NSAID) AND A PROGESTOGENIC COMPOUND AND METHODS FOR MANUFACTURING” (Bayer OY, priority 2015, published 2024) are polymorph form stability values, retold here.

Structures are written as SMILES.

This data set in a line: Polymorph form during filament preparation and printing (i.a. X-ray diffraction). The data set is classed as physicochemical. An excerpt:
As drug indomethacin was used. Indomethacin can appear in different polymorphic forms, which are differently bioavailable. In the current examples the stable form y-indomethacin was used. […] Other NSAID's such as meloxicam, piroxicam, naproxen, celecoxib, diclofenac, tenoxicam, nimesulide, lornoxicam and indomethacin are likewise suitable, of which indomethacin is particularly preferred.

With `COc1ccc2c(c1)c(CC(=O)O)c(C)n2C(=O)c1ccc(Cl)cc1` [y-indomethacin, indomethacin], the polymorph form stability result is “the polymorph form does not change during filament preparation and printing”.
